The structures appear in SMILES notation. Where “and” joins values, the source holds several entries; their conditions need not be identical. Equal entries are not always repeated. Non-standard residues stand in square brackets, D forms with d. Residues, ends and D or L forms follow the SMILES beside them. ξ: configuration not given here. Ile(3ξ) = CCC(C)[C@H](N)C(=O)O

This assay concerns the target T1, Pituitary adenylate cyclase-activating polypeptide (Rattus norvegicus, UniProt P13589).
T1 sequence (P13589 whole entry): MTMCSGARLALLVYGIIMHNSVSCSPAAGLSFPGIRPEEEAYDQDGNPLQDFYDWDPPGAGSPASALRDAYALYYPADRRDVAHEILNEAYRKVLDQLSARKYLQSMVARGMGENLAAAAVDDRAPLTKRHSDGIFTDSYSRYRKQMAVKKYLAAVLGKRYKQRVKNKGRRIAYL
For orientation: Ki means the equilibrium dissociation constant of an inhibitor or competing ligand from its target. The low end stands for tighter binding, the high end for weaker binding. For `CSCC[C@H](NC(=O)[C@H](CCC(N)=O)NC(=O)[C@H](CCCCN)NC(=O)[C@H](CCCNC(=N)N)NC(=O)[C@H](Cc1ccc(O)cc1)NC(=O)[C@H](CCCNC(=N)N)NC(=O)[C@H](CO)NC(=O)[C@H](Cc1ccc(O)cc1)NC(=O)[C@H](CO)NC(=O)[C@H](CC(=O)O)NC(=O)[C@@H](NC(=O)[C@@H](N)Cc1ccccc1)[C@@H](C)O)C(=O)N[C@@H](C)C(=O)N[C@H](C(=O)N[C@@H](CCCCN)C(=O)N[C@@H](CCCCN)C(=O)N[C@@H](Cc1ccc(O)cc1)C(=O)N[C@@H](CC(C)C)C(=O)N[C@@H](C)C(=O)N[C@@H](C)C(=O)N[C@H](C(=O)N[C@@H](CC(C)C)C(=O)NCC(=O)N[C@@H](CCCCN)C(=O)N[C@@H](CCCNC(=N)N)C(=O)N[C@@H](Cc1ccc(O)cc1)C(=O)N[C@@H](CCCCN)C(=O)N[C@@H](CCC(N)=O)C(=O)N[C@@H](CCCNC(=N)N)C(=O)N[C@H](C(=O)N[C@@H](CCCCN)C(=O)N[C@@H](CC(N)=O)C(=O)N[C@@H](CCCCN)C(N)=O)C(C)C)C(C)C)C(C)C`, the inhibition constant (Ki) is 8 nM and 10 nM.

Molecule `CC[C@H](C)[C@H](NC(=O)[C@H](CO)NC(=O)[C@H](CC(N)=O)NC(=O)[C@H](CC(C)C)NC(=O)[C@H](Cc1ccc(O)cc1)NC(=O)[C@H](CCCCN)NC(=O)[C@H](CCCCN)NC(=O)[C@@H](NC(=O)[C@H](C)NC(=O)[C@H](CCSC)NC(=O)[C@H](CCC(N)=O)NC(=O)[C@H](CCCCN)NC(=O)[C@H](CCCN=C(N)N)NC(=O)[C@H](CC(C)C)NC(=O)[C@H](CCCN=C(N)N)NC(=O)[C@@H](NC(=O)[C@H](Cc1ccc(O)cc1)NC(=O)[C@H](CC(N)=O)NC(=O)[C@H](CC(=O)O)NC(=O)[C@@H](NC(=O)[C@H](Cc1ccccc1)NC(=O)[C@@H](NC(=O)[C@H](C)NC(=O)[C@H](CC(=O)O)NC(=O)[C@H](CO)NC(=O)[C@@H](N)Cc1cnc[nH]1)C(C)C)[C@@H](C)O)[C@@H](C)O)C(C)C)C(=O)N[C@@H](CC(C)C)C(=O)N[C@@H](CC(N)=O)C(=O)O` [CAS_37221-79-7] returned a Ki of 80 nM.

For the molecule `CC[C@H](C)[C@H](NC(=O)CNC(=O)[C@H](CCC(=O)O)NC(=O)[C@H](CO)NC(=O)[C@@H](N)Cc1cnc[nH]1)C(=O)N[C@@H](Cc1ccccc1)C(=O)N[C@H](C(=O)N[C@@H](CC(=O)O)C(=O)N[C@@H](CO)C(=O)N[C@@H](Cc1ccc(O)cc1)C(=O)N[C@@H](CO)C(=O)N[C@@H](CCCNC(=N)N)C(=O)N[C@@H](Cc1ccc(O)cc1)C(=O)N[C@@H](CCCNC(=N)N)C(=O)N[C@@H](CCCCN)C(=O)N[C@@H](CCC(N)=O)C(=O)N[C@@H](CCSC)C(=O)N[C@@H](C)C(=O)N[C@H](C(=O)N[C@@H](CCCCN)C(=O)N[C@@H](CCCCN)C(=O)N[C@@H](Cc1ccc(O)cc1)C(=O)N[C@@H](CC(C)C)C(=O)N[C@@H](C)C(=O)N[C@@H](C)C(=O)N[C@H](C(=O)N[C@@H](CC(C)C)C(N)=O)C(C)C)C(C)C)[C@@H](C)O` [PACAP(1-27)], the Ki is 0.08 nM.

`[C][C][C]([C])[C@H]([N]C(=O)[C][N]C(=O)[C@H]([C][C]C([O])=O)[N]C(=O)[C@@H]([N])[C][O])C(=O)[N][C@@H]([C]c1ccccc1)C(=O)[N][C@H](C(=O)[N][C@@H]([C]C([O])=O)C(=O)[N][C@@H]([C][O])C(=O)[N][C@@H]([C]c1ccc([O])cc1)C(=O)[N][C@@H]([C][O])C(=O)[N][C@@H]([C][C][C]N=C([N])[N])C(=O)[N][C@@H]([C]c1ccc([O])cc1)C(=O)[N][C@@H]([C][C][C]N=C([N])[N])C(=O)[N][C@@H]([C][C][C][C][N])C(=O)[N][C@@H]([C][C]C([N])=O)C(=O)[N][C@@H]([C][C]S[C])C(=O)[N][C@@H]([C])C(=O)[N][C@@H]([C]([C])[C])C(=O)[N][C@@H]([C][C][C][C][N])C(=O)[N][C@@H]([C][C][C][C][N])C(=O)[N][C@@H]([C]c1ccc([O])cc1)C(=O)[N][C@@H]([C][C]([C])[C])C(=O)[N][C@@H]([C])C(=O)[N][C@@H]([C])C(=O)[N][C@@H]([C]([C])[C])C(=O)[N][C@@H]([C][C]([C])[C])C([N])=O)[C@@H]([C])[O]` [PACAP(2-27)] yielded an inhibitory constant (Ki) of 5 nM.

`CCC(C)[C@H](NC(=O)CNC(=O)[C@H](CC(=O)O)NC(=O)[C@@H](N)CO)C(=O)N[C@@H](Cc1ccccc1)C(=O)N[C@H](C(=O)N[C@@H](CC(=O)O)C(=O)N[C@@H](CO)C(=O)N[C@@H](Cc1ccc(O)cc1)C(=O)N[C@@H](CO)C(=O)N[C@@H](CCCN=C(N)N)C(=O)N[C@@H](Cc1ccc(O)cc1)C(=O)N[C@@H](CCCN=C(N)N)C(=O)N[C@@H](CCCCN)C(=O)N[C@@H](CCC(N)=O)C(=O)N[C@@H](CCSC)C(=O)N[C@@H](C)C(=O)N[C@H](C(=O)N[C@@H](CCCCN)C(=O)N[C@@H](CCCCN)C(=O)N[C@@H](Cc1ccc(O)cc1)C(=O)N[C@@H](CC(C)C)C(=O)N[C@@H](C)C(=O)N[C@@H](C)C(=O)N[C@H](C(=O)N[C@@H](CC(C)C)C(=O)NCC(=O)N[C@@H](CCCCN)C(=O)N[C@@H](CCCN=C(N)N)C(=O)N[C@@H](Cc1ccc(O)cc1)C(=O)N[C@@H](CCCCN)C(=O)N[C@@H](CCC(N)=O)C(=O)N[C@@H](CCCN=C(N)N)C(=O)N[C@H](C(=O)N[C@@H](CCCCN)C(=O)N[C@@H](CC(N)=O)C(=O)N[C@@H](CCCCN)C(N)=O)C(C)C)C(C)C)C(C)C)[C@@H](C)O` (stereo partly drawn) [PACAP(2-38)] (H-SDG[Ile(3ξ)]FTDSYSRYRKQMAVKKYLAAVLGKRYKQRVKNK-NH2): the inhibition constant Ki is 5 nM and 8 nM.

As for `CCC(C)[C@H](NC(=O)CNC(=O)[C@@H](N)CC(=O)O)C(=O)N[C@@H](Cc1ccccc1)C(=O)N[C@H](C(=O)N[C@@H](CC(=O)O)C(=O)N[C@@H](CO)C(=O)N[C@@H](Cc1ccc(O)cc1)C(=O)N[C@@H](CO)C(=O)N[C@@H](CCCN=C(N)N)C(=O)N[C@@H](Cc1ccc(O)cc1)C(=O)N[C@@H](CCCN=C(N)N)C(=O)N[C@@H](CCCCN)C(=O)N[C@@H](CCC(N)=O)C(=O)N[C@@H](CCSC)C(=O)N[C@@H](C)C(=O)N[C@H](C(=O)N[C@@H](CCCCN)C(=O)N[C@@H](CCCCN)C(=O)N[C@@H](Cc1ccc(O)cc1)C(=O)N[C@@H](CC(C)C)C(=O)N[C@@H](C)C(=O)N[C@@H](C)C(=O)N[C@H](C(=O)N[C@@H](CC(C)C)C(N)=O)C(C)C)C(C)C)[C@@H](C)O` (stereo partly drawn) [PACAP(3-27)] (H-DG[Ile(3ξ)]FTDSYSRYRKQMAVKKYLAAVL-NH2), the Ki is 500 nM and 400 nM.

In the case of `CCC(C)[C@H](NC(=O)CNC(=O)[C@@H](N)CC(=O)O)C(=O)N[C@@H](Cc1ccccc1)C(=O)N[C@H](C(=O)N[C@@H](CC(=O)O)C(=O)N[C@@H](CO)C(=O)N[C@@H](Cc1ccc(O)cc1)C(=O)N[C@@H](CO)C(=O)N[C@@H](CCCN=C(N)N)C(=O)N[C@@H](Cc1ccc(O)cc1)C(=O)N[C@@H](CCCN=C(N)N)C(=O)N[C@@H](CCCCN)C(=O)N[C@@H](CCC(N)=O)C(=O)N[C@@H](CCSC)C(=O)N[C@@H](C)C(=O)N[C@H](C(=O)N[C@@H](CCCCN)C(=O)N[C@@H](CCCCN)C(=O)N[C@@H](Cc1ccc(O)cc1)C(=O)N[C@@H](CC(C)C)C(=O)N[C@@H](C)C(=O)N[C@@H](C)C(=O)N[C@H](C(=O)N[C@@H](CC(C)C)C(=O)NCC(=O)N[C@@H](CCCCN)C(=O)N[C@@H](CCCN=C(N)N)C(=O)N[C@@H](Cc1ccc(O)cc1)C(=O)N[C@@H](CCCCN)C(=O)N[C@@H](CCC(N)=O)C(=O)N[C@@H](CCCN=C(N)N)C(=O)N[C@H](C(=O)N[C@@H](CCCCN)C(=O)N[C@@H](CC(N)=O)C(=O)N[C@@H](CCCCN)C(N)=O)C(C)C)C(C)C)C(C)C)[C@@H](C)O` (stereo partly drawn) [PACAP(3-38)] (H-DG[Ile(3ξ)]FTDSYSRYRKQMAVKKYLAAVLGKRYKQRVKNK-NH2), the inhibition constant (Ki) stood at 300 nM.

`CC[C@H](C)[C@H](NC(=O)CNC(=O)[C@H](CC(=O)O)NC(=O)[C@H](CO)NC(=O)[C@@H](N)Cc1cnc[nH]1)C(=O)N[C@@H](Cc1ccccc1)C(=O)N[C@H](C(=O)N[C@@H](CC(=O)O)C(=O)N[C@@H](CO)C(=O)N[C@@H](Cc1ccc(O)cc1)C(=O)N[C@@H](CO)C(=O)N[C@@H](CCCNC(=N)N)C(=O)N[C@@H](Cc1ccc(O)cc1)C(=O)N[C@@H](CCCNC(=N)N)C(=O)N[C@@H](CCCCN)C(=O)N[C@@H](CCC(N)=O)C(=O)N[C@@H](CCSC)C(=O)N[C@@H](C)C(=O)N[C@H](C(=O)N[C@@H](CCCCN)C(=O)N[C@@H](CCCCN)C(=O)N[C@@H](Cc1ccc(O)cc1)C(=O)N[C@@H](CC(C)C)C(=O)N[C@@H](C)C(=O)N[C@@H](C)C(=O)N[C@H](C(=O)N[C@@H](CC(C)C)C(=O)NCC(=O)N[C@@H](CCCCN)C(=O)N[C@@H](CCCNC(=N)N)C(=O)N[C@@H](Cc1ccc(O)cc1)C(=O)N[C@@H](CCCCN)C(=O)N[C@@H](CCC(N)=O)C(=O)N[C@@H](CCCNC(=N)N)C(=O)N[C@H](C(=O)N[C@@H](CCCCN)C(=O)N[C@@H](CC(N)=O)C(=O)N[C@@H](CCCCN)C(N)=O)C(C)C)C(C)C)C(C)C)[C@@H](C)O` [PACAP]: the Ki was 0.1 nM.
